Laboratory results taken from patent publication US9815863B2, “Hydrogen bond forming fluoro ketolides for treating diseases” (priority 2010, dated 2017).

What was measured:
[1] = system: S. aureus ribosomes (23S rRNA); assay: RNA footprinting (ribosome chemical probing), wild-type S. aureus ribosomes; assay type: binding; details: 100 μM antibiotic; for Protection of A752 from DMS modification: S. aureus ribosomes
Experimental: (§1) Ribosome chemical probing. rRNA probing was done following standard protocols (Merryman, C., and H. F. Noller. 1998. Footprinting and modification-interference analysis of binding sites on RNA, p. 237-253. In C. W. J. Smith (ed.), RNA:Protein Interactions, A Practical Approach. Oxford University Press, Oxford), with minor modifications. Briefly, 200 nM ribosomes were incubated with 100 μM antibiotic in 50 μL of buffer B (80 mM HEPES-KOH [pH 7.8], 20 mM MgCl2, 100 mM NH4Cl, 1.5 mM dithiothreitol) for 10 min at 37° C., followed by 10 min at 20° C. Modifying reagents (dimethyl sulfate [DMS], kethoxal, or 1-cyclohexyl-3-(2-morpholinoethyl)carbodiimide metho p-toluene sulfonate [CMCT]) were added and the modification reaction was carried out for 10 min at 37° C. After quenching the reaction and ethanol precipitation, rRNA was extracted and the distribution of modified nucleotides was assessed by primer extension.
(§2) Interactions of CEM-101 with wild-type E. coli and S. aureus ribosomes in solution. […] 1987. Chloramphenicol, erythromycin, carbomycin and vernamycin B protect overlapping sites in the peptidyl transferase region of 23S ribosomal RNA. Biochimie 69:879-884). Also included in this study was a C3-cladinose cousin of CEM-101, CEM-103, which lacks the C2-linked fluorine atom.

[2] = system: 2058-dimethylated ribosomes isolated from the S. aureus N315 strain; assay: RNA footprinting of A2058-dimethylated (Erm-modified) ribosomes from S. aureus N315; assay type: binding; details: S. aureus N315 ribosomes dimethylated at A2058, drugs at 100 μM
Experimental: as §1
Interaction of CEM-101 with S. aureus ribosomes dimethylated at A2058 by Erm-methyltransferase. Erm-methyltransferase modifies A2058 in 23S rRNA by consecutively adding two methyl groups to the exocyclic amino group of the adenine base. Such modification completely blocks binding of erythromycin and similar macrolides, whereas its effect on binding of ketolides is less clear (Douthwaite, S., L. H. Hansen, and P. Mauvais. 2000. Macrolide-ketolide inhibition of MLS-resistant ribosomes is improved by alternative drug interaction with domain R of 23S rRNA. Mol. Microbiol. 36:183-193; Liu, M., and S. Douthwaite. 2002. Activity of the ketolide telithromycin is refractory to Erm monomethylation of bacterial rRNA. Antimicrob. Agents Chemother. 46:1629-1633). Therefore, interaction of CEM-101 with the ribosomes isolated from a clinical S. aureus strain N315, which carries five chromosomal copies of constitutively expressed ermA gene present in the Tn554 transposon (Kuroda, M., T. Ohta, I. Uchiyama, T. Baba, H. Yuzawa, I. Kobayashi, L. Cui, A. Oguchi, K. Aoki, Y. Nagai, J. Lian, T. Ito, M. Kanamori, H. Matsumaru, A. Maruyama, H. Murakami, A. Hosoyama, Y. Mizutani-Ui, N. K. Takahashi, T. Sawano, R. Inoue, C. Kaito, K. Sekimizu, H. Hirakawa, S. Kuhara, S. Goto, J. Yabuzaki, M. Kanehisa, A. Yamashita, K. Oshima, K. Furuya, C. Yoshino, T. Shiba, M. Hattori, N. Ogasawara, H. Hayashi, and K. Hiramatsu. 2001. Whole genome sequencing of meticillin-resistant Staphylococcus aureacs. Lancet 357:1225-1240) was investigated.
Footprinting analysis was used to test interactions of ketolides (CEM-101 and telithromycin) and cladinose-containing macrolides (CEM-103 and erythromycin) with the 2058-dimethylated ribosomes isolated from the S. aureus N315 strain. Ribosomes were incubated with the drugs (present at 100 μM concentration) and probed by DMS modification. Because dimethylated A2058 blocks progression of reverse transcriptase along the RNA template, a strong reverse transcriptase stop is observed at A2058 on the primer extension gel (Vester, B., and S. Douthwaite. 1994. Domain V of 23S rRNA contains all the structural elements necessary for recognition by the ErmE methyltransferase. J. Bacteriol. 176:6999-7004; Zhong, P., Z. Cao, R. Hammond, Y. Chen, J. Beyer, V. D. Shortridge, L. Y. Phan, S. Pratt, J. Capobianco, K. A. Reich, R. K. Flamm, Y. S. Or, and L. Katz. 1999. Induction of ribosome methylation in MLS-resistant Streptococcus pneumoniae by macrolides and ketolides. Microb. Drug Resist. 5:183-188). Therefore, it is impossible to use footprinting to evaluate interactions of macrolides with this position in the S. aureus N315 ribosomes. […]

[3] = system: E. coli ribosomes (23S rRNA); assay: RNA footprinting (ribosome chemical probing), wild-type E. coli ribosomes; assay type: binding; details: 100 μM antibiotic; for Protection of A752 from DMS modification: E. coli ribosomes
Experimental: as §1, §2

[4] = system: bacterial protein synthesis (E. coli S30 extract); assay: E. coli cell-free transcription-translation (TnT) S30 system, firefly luciferase synthesis; details: read-out: IC50 of inhibition of firefly luciferase synthesis, ribosomes 600 nM
S. pyogenes ATCC 19615 = assay: Conventional antibacterial screen; assay type: cell-based
S. aureus D-5/ermA = assay: Conventional antibacterial screen; assay type: cell-based
[5] = system: S. pneumoniae 014-4331A/mefA; assay: Conventional antibacterial screen; assay type: cell-based
[6] = system: S. pyogenes 089-14217A/ermB; assay: Conventional antibacterial screen; assay type: cell-based
[7] = system: S. pyogenes 129-7129A/ermA; assay: Conventional antibacterial screen; assay type: cell-based
S. pneumoniae 117-20B/WT = assay: Conventional antibacterial screen; assay type: cell-based
[8] = system: S. pneumoniae ATCC 49619/WT; assay: Conventional antibacterial screen; assay type: cell-based
E. coli ATCC 25922/WT = assay: Conventional antibacterial screen; assay type: cell-based
[9] = system: S. pneumoniae 120-1037B/-ermB/mefA; assay: Conventional antibacterial screen; assay type: cell-based
M. luteus ATCC 9341/WT = assay: Conventional antibacterial screen; assay type: cell-based
S. aureus BAA-977/ermA = assay: Conventional antibacterial screen; assay type: cell-based
E. coli 122-5930A/WT = assay: Conventional antibacterial screen; assay type: cell-based
S. aureus ATCC 29213/WT = assay: Conventional antibacterial screen; assay type: cell-based
S. aureus 024-11A/WT = assay: Conventional antibacterial screen; assay type: cell-based
[10] = system: S. pneumoniae 007-4589A/ermB; assay: Conventional antibacterial screen; assay type: cell-based
[11] = system: Streptococcus pyogenes Tel^R, Mac^R; assay: MIC against streptococci clinical isolates (Table 3); assay type: cell-based; details: S. pyogenes Tel^R, Mac^R; 9 strains (8 ermB, 1 ermA, constitutive)
[12] = system: Streptococcus pneumoniae Pen^S, Tel^S, Mac^S; assay: as above; assay type: cell-based; details: 10 strains
[13] = system: Streptococcus pyogenes Tel^S, Mac^S; assay: as above; assay type: cell-based; details: 10 strains
[14] = system: Streptococcus pneumoniae Pen^R, Tel^1/^R, Mac^R; assay: as above; assay type: cell-based; details: S. pneumoniae Pen^R, 12 strains, constitutive ermB

Compound | Protection of A752 from DMS modification [1] | Protection of A2059 from DMS modification (binding to Erm-modified ribosome) [2] | Protection of G2505 from kethoxal modification [2] | Protection of U2609 from modification with CMCT [2] | Protection of A752 from DMS modification [3] | IC50 [4] [µM] | Screening result (S. pyogenes ATCC 19615) | Screening result (S. aureus D-5/ermA) | Screening result [5] | Screening result [6] | Screening result [7] | Screening result (S. pneumoniae 117-20B/WT) | Screening result [8] | Screening result (E. coli ATCC 25922/WT) | Screening result [9] | Screening result (M. luteus ATCC 9341/WT) | Screening result (S. aureus BAA-977/ermA) | Screening result (E. coli 122-5930A/WT) | Screening result (S. aureus ATCC 29213/WT) | Screening result (S. aureus 024-11A/WT) | further results
11-N-[4-[4-(3-aminophenyl)[1,2,3]triazol-1-yl]butyl]-6-O-methylerythromycin A 11,12-cyclic carbamate [CEM-103] | strongly protects | protection of A2059 from DMS modification | partially protected | fully protected | strongly protects | – | – | – | – | – | – | – | – | – | – | – | – | – | – | – | Protection of A2058 and A2059 in domain V of 23S rRNA from modification with DMS ([1]; S. aureus wild-type ribosomes): protect; Protection of A2058 and A2059 in domain V of 23S rRNA from modification with DMS ([3]; E. coli wild-type ribosomes): protect
CC[C@H]1OC(=O)[C@H](C)[C@@H](O[C@H]2C[C@@](C)(OC)[C@@H](O)[C@H](C)O2)[C@H](C)[C@@H](O[C@@H]2O[C@H](C)C[C@H](N(C)C)[C@H]2O)[C@](C)(O)C[C@@H](C)CN(C)[C@H](C)[C@@H](O)[C@]1(C)O [azithromycin] | – | – | – | – | – | 0.3 | – | – | – | – | – | – | – | – | – | – | – | – | – | – | –
CC[C@H]1OC(=O)[C@@](C)(F)C(=O)[C@H](C)[C@@H](OC2O[C@H](C)C[C@H](N(C)C)[C@H]2O)[C@@](C)(OC)C[C@@H](C)C(=O)[C@H](C)[C@H]2N(CCCCn3cc(Cc4c[nH]c5ccccc45)nn3)C(=O)O[C@]12C (stereo partly shown) [CEM-219, 2-fluoro-5-O-desosaminyl-11-N-[4-[4-(indol-3-ylmethyl)[1,2,3]triazol-1-yl]butyl]-6-O-methyl-3-oxo-erythronolide A 11,12-cyclic carbamate] | – | – | – | – | – | – | ≦0.015 | >16 | 0.5 | 0.5 | ≦0.015 | ≦0.015 | ≦0.015 | >16 | 0.12 | ≦0.015 | 0.25 | >16 | 0.25 | 0.5 | Screening result [10]: ≦0.015
CC[C@H]1OC(=O)[C@H](C)C(=O)[C@H](C)[C@@H](OC2O[C@H](C)C[C@H](N(C)C)[C@H]2O)[C@@](C)(OC)C[C@@H](C)C(=O)[C@H](C)[C@H]2N(CCCCn3cc(Cc4c[nH]c5ccccc45)nn3)C(=O)O[C@]12C (stereo partly shown) [CEM-199, 5-O-desosaminyl-11-N-[4-[4-(indol-3-ylmethyl)[1,2,3]triazol-1-yl]butyl]-6-O-methyl-3-oxo-erythronolide A 11,12-cyclic carbamate] | – | – | – | – | – | – | 0.06 | >16 | 1 | 1 | 0.12 | 0.06 | 0.06 | 16 | 0.5 | 0.06 | 0.5 | 16 | 0.5 | 0.5 | Screening result [10]: 0.12
CC[C@H]1OC(=O)[C@H](C)C(=O)[C@H](C)[C@@H](O[C@@H]2O[C@H](C)C[C@H](N(C)C)[C@H]2O)[C@](C)(OC)C[C@@H](C)C(=O)[C@H](C)[C@H]2N(CCCCn3cnc(-c4cccnc4)c3)C(=O)O[C@]12C [telithromycin] | strongly protects | protected A2059 but to a lesser extent than CEM-101 or CEM-103 | notably weaker protection | notably weaker protection | strongly protects | 0.5 | – | – | – | – | – | – | – | – | – | – | – | – | – | – | –
11-N-[4-[4-(3-aminophenyl)[1,2,3]triazol-1-yl]butyl]-5-O-desosaminyl-6-O-methyl-3-oxo-erythronolide A 11,12-cyclic carbamate [CEM-Des-F] | – | – | – | – | – | – | – | – | – | – | – | – | – | – | – | – | – | – | – | – | MIC50 [11]: 2 µg/mL; MIC90 [11]: 2 µg/mL; MIC50 [12]: 0.03 µg/mL; MIC90 [12]: 0.03 µg/mL; MIC50 [13]: 0.03 µg/mL; MIC90 [13]: 0.03 µg/mL; MIC50 [14]: 4 µg/mL; MIC90 [14]: 4 µg/mL
